The subject of one data set is Histoplasma capsulatum. Kind of data set: microbe, parasite or virus in culture. The format is cell-based. The note with it: 168 h, read-out: MIC values, H. capsulatum.
The next data set deals with Candida albicans. As to the kind of experiment: fungistatic activity test in Casiton agar test tubes (MIC), Candida albicans. The format is cell-based. Particulars: 48 h, read-out: MIC values, C. albicans.
The nature of another data set: in vivo. The note with it: mouse, po.

≈ marks a conversion by molar mass, not a printed value.

In the case of `Clc1ccc([C@@]2(Cn3ccnc3)OC[C@H](COc3ccc(N4CCSCC4)cc3)O2)c(Cl)c1` (relative stereo) [CH CH 0, cis-4-[4-[[2-(2,4-dichlorophenyl)-2-[(imidazol-1-yl)methyl]-1,3-dioxolan-4-yl]methoxy]phenyl]tetrahydro-4H-1,4-thiazine], the results for the MIC in the data set on Histoplasma capsulatum and in the data set on Candida albicans were 10 µg/mL (≈ 19.7 µM) and 1 to 100 µg/mL (≈ 1.97 to 197 µM), respectively. Also, the LD50 in “in vivo” was around 1000 mg/kg.
For `[O-][S+]1CCN(c2ccc(OC[C@H]3CO[C@](Cn4ccnc4)(c4ccc(Cl)cc4Cl)O3)cc2)CC1` (relative stereo) [CH CH 1, cis-4-[4-[[2-(2,4-dichlorophenyl)-2-[(imidazol-1-yl)methyl]-1,3-dioxolan-4-yl]methoxy]-phenyl]-tetrahydro-4H-1,4-thiazine 1-oxide], the MIC in the data set on Histoplasma capsulatum was 10 µg/mL (≈ 19.1 µM); in the data set on Candida albicans, 1 to 100 µg/mL (≈ 1.91 to 191 µM). Besides, in “in vivo”, the LD50 is around 1000 mg/kg.
In the same order, the values of `O=S1(=O)CCN(c2ccc(OC[C@H]3CO[C@](Cn4ccnc4)(c4ccc(Cl)cc4Cl)O3)cc2)CC1` (relative stereo) [CH CH 2, cis-4-[4-[[2-(2,4-dichlorophenyl)-2-[(imidazol-1-yl)methyl]-1,3-dioxolan-4-yl]methoxy]phenyl]-tetrahydro-4H-1,4-thiazine 1,1-dioxide] are 1 µg/mL (≈ 1.86 µM), 0.1 to 1 µg/mL (≈ 0.186 to 1.86 µM) and at least 4000 mg/kg.
In the case of `Clc1ccc([C@@]2(Cn3cncn3)OC[C@H](COc3ccc(N4CCSCC4)cc3)O2)c(Cl)c1` (relative stereo) [CH N 0, cis-4-[4-[[2-(2,4-dichlorophenyl)-2-[(1H-1,2,4-triazol-1-yl)methyl]-1,3-dioxolan-4-yl]methoxy]phenyl]-tetrahydro-4H-1,4-thiazine], the MIC with Histoplasma capsulatum is 10 µg/mL (≈ 19.7 µM); in the data set on Candida albicans it was 0.1 to 1 µg/mL (≈ 0.197 to 1.97 µM). This compound had an LD50 in the data set “in vivo” of at least 5000 mg/kg.
As to `[O-][S+]1CCN(c2ccc(OC[C@H]3CO[C@](Cn4cncn4)(c4ccc(Cl)cc4Cl)O3)cc2)CC1` (relative stereo) [CH N 1, cis-4-[4-[[2-(2,4-dichlorophenyl)-2-[(1H-1,2,4-triazol-1-yl)methyl]-1,3-dioxolan-4-yl]methoxy]phenyl]-tetrahydro-4H-1,4-thiazine 1-oxide], the MIC with Histoplasma capsulatum was 100 µg/mL (≈ 191 µM); with Candida albicans it was 1 to 100 µg/mL (≈ 1.91 to 191 µM). Moreover, in “in vivo”, the LD50 was around 4000 mg/kg.
In the same order, the values of `O=S1(=O)CCN(c2ccc(OC[C@H]3CO[C@](Cn4cncn4)(c4ccc(Cl)cc4Cl)O3)cc2)CC1` (relative stereo) [CH N 2, cis-4-[4-[[2-(2,4-dichlorophenyl)-2-[(1H-1,2,4-triazol-1-yl)methyl]-1,3-dioxolan-4-yl]methoxy]phenyl]-tetrahydro-4H-1,4-thiazine 1,1-dioxide] are 1 µg/mL (≈ 1.85 µM), 0.1 to 10 µg/mL (≈ 0.185 to 18.5 µM) and at least 5000 mg/kg.
For `O=S1(=O)CCN(c2ccc(OC[C@H]3CO[C@](Cn4cnnc4)(c4ccc(Cl)cc4Cl)O3)cc2)CC1` (relative stereo) [N CH 2, cis-4-[4-[[2-(2,4-dichlorophenyl)-2-[(4H-1,2,4-triazol-4-yl)methyl]-1,3-dioxolan--4-yl]methoxy]phenyl]-tetrahydro-4H-1,4-thiazine 1,1-dioxide], the MIC was above 100 µg/mL in the data set with Histoplasma capsulatum and 0.1 to 10 µg/mL (≈ 0.185 to 18.5 µM) in the data set with Candida albicans. This compound also came in with an LD50 in the data set “in vivo” of at least 4000 mg/kg.

The values are drawn from US4720546A (priority 1984, dated 1988).
